Reference: paper PMC11345829, “Discovery of Potent Isoquinolinequinone N-Oxides to Overcome Cancer Multidrug Resistance” (Journal of Medicinal Chemistry, 2024)

Experiments:
A549 = test: NCI60 five-dose GI50 (NCI data); format: cell-based; conditions: Homo sapiens, SI Table S20
Description: (§1) The concentration−response curve generated enables the determination of three criteria, GI50 (drug concentration at which 50% of cell growth is inhibited), total growth inhibition (TGI) and LC50 (drug concentration at which 50% of tumor cells are killed) which can be used to compare effectiveness against any compound tested in the screen since its inception.
(§2) S2.1 NCI Screening Assay Experimental details
NCI Screening Assay Experimental: Cancer cell growth assays (NCI60 screening) 5,6 […]
Unbound dye was […]
removed with five washes of 1% acetic acid, and the plates were allowed to air dry. The dye was then resolubilised in Tris buffer, and the colorimetric absorbance was measured (515 nm). Growth inhibition was measured relative to the response generated from proliferating cells cultured under identical conditions for 48 h. Data from one-dose experiments pertains to the percentage growth at […]
Five-dose study: Serial 5 × 10-fold dilution from an initial DMSO stock solution was performed, prior to incubation at each individual concentration (10 nM, 100 nM, 1 μM, 10 μM and 100 μM). Using seven absorbance measurements (time zero (Tz), control growth (C), and test growth in the presence of drug at the five concentration levels (Ti)), the percentage growth was calculated at each of the drug concentrations levels. […] Three dose response parameters were calculated for each experimental agent. […]

colon cell line panel = test: NCI60 five-dose GI50, colon cell line panel; format: cell-based; conditions: Homo sapiens, read-out: GI50 range colon cell line panel
Description: as §1, §2
NCI Screening Assay Experimental: Cancer cell growth assays (NCI60 screening) 5,6 One-dose study: Tested compounds were initially solubilised in DMSO, diluted into RPMI 1640 and 5% fetal bovine serum/L-glutamine, and added to 96-well plates containing cell lines previously cultured for 24 h. […] The dye was then resolubilised in Tris buffer, and the colorimetric absorbance was measured (515 nm). Growth inhibition was measured relative to the response generated from proliferating cells cultured under identical conditions for 48 h. […]
Five-dose study: Serial 5 × 10-fold dilution from an initial DMSO stock solution was performed, prior to incubation at each individual concentration (10 nM, 100 nM, 1 μM, 10 μM and 100 μM). Using seven absorbance measurements (time zero (Tz), control growth (C), and test growth in the presence of drug at the five concentration levels (Ti)), the percentage growth was calculated at each of the drug concentrations levels. […]

NCI-H460 cells [1] = test: ROS accumulation, CM-H2DCFDA flow cytometry; format: cell-based, human; conditions: 6 h; 0.7, 1 and 5 μM; concentration dependent
Description: To uncover the mechanisms of action of 25, we analyzed the cellular accumulation of ROS by flow cytometry, using a fluorescent marker of ROS, 5-(and-6)-chloromethyl-2′,7′-dichlorodihydrofluorescein diacetate acetyl ester (CM-H2DCFDA). […] Importantly, this effect was concentration dependent.
Figure 6 Effect of the compound 25 on ROS accumulation in NCI-H460 cells. […] Results are presented as mean fluorescence values, normalized to the blank. Data are expressed as mean ± SEM from at least 3 independent experiments.
To study the effect of compound 25 on ROS levels, 5-(and-6)-chloromethyl-2′,7′-dichlorodihydrofluorescein diacetate, acetyl ester (CM-H2DCFDA; Invitrogen) analysis by flow cytometry was performed in the drug-sensitive cells. NCI-H460 cells (1.5 × 10^5/mL) were plated in 6-well plates for 24 h. […] Harvested cells were subsequently washed twice in phosphate-buffered saline (PBS) and the CM-H2DCFDA fluorescence was analyzed in a BD AccuriTM flow cytometer (BD Biosciences, San Jose, California, USA). Mean fluorescence intensity was calculated after correction for autofluorescence.

NCI-H460 cells [2] = test: Alkaline Comet assay (DNA damage); format: cell-based, human; conditions: 48 h; 2 × GI50; preliminary, data not shown
Method: Hydrogen peroxide (Sigma-Aldrich) was used as a positive control (50 μM). Harvested cells were resuspended in 0.5% low melting point agarose (Thermo Fisher Scientific) and poured onto slides precoated with 1% normal melting point agarose (Sigma-Aldrich). Cells were then lysed with ice-cold lysis buffer [100 mM Na2EDTA (Sigma-Aldrich), […] (Sigma-Aldrich), 10 mM Tris-Base (Sigma-Aldrich), pH 10.0, 1% and Triton X-100 (Sigma-Aldrich)) for 2 h in the dark at 4 °C. Then, after two washes with distilled water, slides were placed on an electrophoresis tank filled with electrophoresis buffer [300 mM NaOH (Sigma-Aldrich), 1 mM Na2EDTA; pH 13.0] and incubated for 40 min to allow DNA to unwind. Electrophoresis was carried out for 20 min at 32 V. Then slides were immersed twice in pure ethanol and allowed to dry at RT. Slides were stained with SyberGold staining solution (Invitrogen) in Tris-EDTA buffer [10 mM Tris-HCl (Sigma-Aldrich) and 1 mM EDTA (Sigma-Aldrich); pH 7.5] for 30 min with agitation and protected from light. In the end, slides washed and dried were visualized on a Zeiss Axio Imager Z1 microscope, equipped with the Axiovision 4.9 software.

NCI-H460 spheroid = test system: NCI-H460 spheroid; design: method as in PMID 34915071; conditions: 3D; cited from earlier work

With COC(=O)c1c2c(c[n+]([O-])c1C)C(=O)C=C(NCc1ccccc1)C2=O [Compound 25] the GI50 (A549) was 232 nM, the GI50 (colon cell line panel) was 157 to 247 nM and the “ROS accumulation (fluorescence intensity)” value (NCI-H460 cells [1]) was “statistically significant increase on fluorescence intensity”. The DNA damage (NCI-H460 cells [2]) was “did not increase DNA damage”.

In the case of COc1cccc2c1C(=O)c1c(O)c3c(c(O)c1C2=O)C[C@@](O)(C(=O)CO)C[C@@H]3O[C@H]1C[C@H](N)[C@H](O)[C@H](C)O1 [doxorubicin, reference compound], the “concentration reducing NCI-H460 spheroid viability” value (NCI-H460 spheroid) is listed as 20 µM.
